The term Kd denotes the concentration at which binding is half-saturated. A higher Kd goes with a looser complex.

The values that follow come from PMC4526365 (Nature structural & molecular biology, 2015).

Assay [1] concerns the target T1, human intelectin-1 (hIntL-1) (Homo sapiens, UniProt Q8WWA0). Briefly: competitive inhibition of hIntL-1 binding to β-Galf.
Target sequence in this assay (Q8WWA0 19-298): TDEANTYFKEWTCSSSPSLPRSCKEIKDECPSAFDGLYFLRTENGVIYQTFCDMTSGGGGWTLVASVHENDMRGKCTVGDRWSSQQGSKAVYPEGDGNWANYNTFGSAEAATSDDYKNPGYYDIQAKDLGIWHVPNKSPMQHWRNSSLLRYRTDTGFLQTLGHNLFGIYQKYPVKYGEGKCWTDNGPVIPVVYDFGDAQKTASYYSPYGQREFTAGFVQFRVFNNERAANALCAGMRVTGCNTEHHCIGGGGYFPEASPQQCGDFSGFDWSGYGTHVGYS
Assay [2] addresses T1, human intelectin-1 (hIntL-1). Briefly: ELISA-like assay on immobilized biotinylated carbohydrate. The assay is classed as binding. A general note: ELISA stands for enzyme-linked immunosorbent assay.
Target sequence in this assay (Q8WWA0 whole entry): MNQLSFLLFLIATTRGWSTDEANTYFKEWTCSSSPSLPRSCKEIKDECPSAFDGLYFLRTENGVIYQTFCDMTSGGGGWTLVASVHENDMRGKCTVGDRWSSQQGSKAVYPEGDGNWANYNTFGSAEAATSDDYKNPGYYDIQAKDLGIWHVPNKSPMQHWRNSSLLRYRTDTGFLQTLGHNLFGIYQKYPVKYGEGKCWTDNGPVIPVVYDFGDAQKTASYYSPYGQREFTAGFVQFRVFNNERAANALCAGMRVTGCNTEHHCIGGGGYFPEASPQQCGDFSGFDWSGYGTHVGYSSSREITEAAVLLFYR

Regarding `O=P(O)(O)OCC(O)CO` (centres unmarked) [glycerol-1-phosphate], the “competitive inhibition of hIntL-1 binding to β-Galf” value in assay [1] is “glycerol and glycerol-1-phosphate— competitively inhibit the lectin from binding to β-Galf”.
“β-D-Galf (biotinylated, immobilized) [β-Galf]” gave a Kd in assay [2] of 0.085 ± 0.014 µM.
